Laboratory results reported in patent US20050019854A1, “Novel method for screening inhibitors of the linkage between the neuronal nitric oxide synthase associated protein and the protein inhibiting neuronal nitric oxide synthase” (priority 2001, published 2005).
Ends that are not written are not given here.

Assays:
[1] = molecular target: T1, PIN (Rattus norvegicus, UniProt P63170); assay: Surface plasmon resonance analysis of PIN binding to immobilized nNOS peptides (Example 1)
T1 construct: GST (N, cleaved yes); made in house; host or cells: E. coli BL21 (DE3), vector pGEX-2T

[2] = molecular target: T2, binding of the PIN to the nNOS (Rattus norvegicus, UniProt P63170); assay: ELISA: inhibition of the binding of GST-PIN to immobilized nNOS (Example 2, first method); settings: peptide 50 μg/ml
T2 construct: catalogue number not given; host or cells: PIN: E. coli BL21 (DE3)

[3] = molecular target: T2, binding of the PIN to the nNOS; assay: Surface plasmon resonance analysis of inhibition of PIN binding to immobilized nNOS (Example 3); settings: for inhibition of the binding of the PIN to the nNOS: SPR
[4] = test system: islets of Langerhans of Zucker (fa/fa) rats; assay: Glucose-induced insulin secretion in isolated islets of Zucker (fa/fa) rats (Example 4); assay type: cell-based, rat; settings: 2 g/L glucose; for reduction of the insulin response: 1 hour
Method: The islets of Langerhans of Zucker (fa/fa) rats are isolated using the collagenase digestion technique of Lacy et al. (Diabetes, 1967). After isolation, the islets are stabilized in Krebs-Ringer containing 0.75 g/L glucose for 45 minutes at 37° C. Groups of three islets are then incubated in Krebs-Ringer with 2 g/L glucose containing increasing concentrations of the molecule C24H18N4O5S (20-100 μM) for 1 hour at 37° C. The liquid supernatant is then recovered and insulin secretion measured by radioimmunology (see FIG. 8).

[5] = molecular target: T3, GST-PIN (PIN with a glutathione S-transferase tag in the N-terminal position) (rat, UniProt P63170 1-89); assay: competition ELISA, GST-PIN preincubated with peptide, nNOS immobilized
T3 construct: Produced in E. coli BL21(DE3) and purified on glutathione sepharose; The thrombin linker between GST and PIN is not described; also called GST-tagged PIN; not shown: Glutathione S-transferase tag of vector pGEX-2T (Pharmacia), N-terminal

[6] = molecular target: T4, protein inhibitor of neuronal nitric oxide synthase (PIN), produced by thrombin digestion of GST-PIN (rat, UniProt P63170 1-89); assay: SPR (BIAcore 2000), peptide immobilized, reference is the normal nNOS peptide
T4 construct: Released from GST-PIN (vector pGEX-2T) by thrombin digestion; also called PIN protein

[7] = molecular target: T3, GST-PIN (PIN with a glutathione …); assay: competition ELISA, GST-PIN preincubated with 50 µg/ml peptide, nNOS immobilized
[8] = molecular target: T4, protein inhibitor of neuronal nitric …; assay: SPR competition, PIN preincubated with peptide, nNOS immobilized

T3 sequence (P63170 whole entry): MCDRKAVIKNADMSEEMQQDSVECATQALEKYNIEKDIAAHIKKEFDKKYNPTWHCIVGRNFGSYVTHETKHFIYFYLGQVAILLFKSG
T2 sequence (P63170 whole entry): as above
T1 sequence (P63170 whole entry): as above
T4 sequence (P63170 whole entry): as above

## KDTGIQVDWD [SEQ ID NO: 3]
[1]; BIAcore, PIN 5-40 μg/ml, global analysis
  Ka (association constant) of PIN for immobilized peptide: 1.86×10^8
[1]; BIAcore, PIN 5-40 μg/ml, global analysis, read-out: Kd (dissociation constant) of PIN for immobilized peptide
  Kd: 5.38 nM
[1]; SPR, ratio vs normal peptide
  affinity of the PIN protein for the mutant peptide relative to the normal peptide: two times greater
[2]
  inhibition of the binding of the PIN to the nNOS: up to 71%
[3]; SPR inhibition curves, FIG. 7D, read-out: inhibition constant (Ki: IC50)
  IC50: 4000 nM
[3]; peptide 5 μg/ml
  inhibition of the binding of the PIN to the nNOS: 59%
[3]; peptide 30 μg/ml
  inhibition of the binding of the PIN to the nNOS: 90%
[3]; peptide 40 μg/ml
  inhibition of the binding of the PIN to the nNOS: 91%

## CCOc1ccc(N2C(=O)NC(=O)/C(=C\c3ccc(Sc4nc5ccccc5[nH]4)o3)C2=O)cc1 [C24H18N4O5S]
[4]; tested 20-100 μM
  concentration from which insulin secretion is blocked in a dose-dependant fashion: ≥ 50 µM
[4]; molecule 50 μM
  reduction of the insulin response: 36%
[4]; molecule 100 μM
  reduction of the insulin response: 79%

## CC[C@H](C)[C@H](N)C(=O)N[C@@H](CC(=O)O)C(=O)N[C@H](C(=O)NCC(=O)N[C@H](C(=O)N[C@@H](CCC(N)=O)C(=O)N[C@H](C(=O)N[C@@H](CC(=O)O)C(=O)N[C@@H](Cc1c[nH]c2ccccc12)C(=O)N[C@@H](CC(=O)O)C(=O)O)C(C)C)[C@@H](C)CC)C(C)C [SEQ ID NO: 4]
[2]
  inhibition of the binding of the PIN to the nNOS: ≤ 78%
[3]; peptide 1 μg/ml
  inhibition of the binding of the PIN to the nNOS: 75%
[3]; peptide 10 μg/ml
  inhibition of the binding of the PIN to the nNOS: 98%

B1: mutant nNOS peptide represented by sequence SEQ ID NO: 3 (Lys-Asp-Thr-Gly-Ile-Gln-Val-Asp-Trp-Asp) (peptide)
peptide: KDTGIQVDWD
notes: Synthetic 10-mer; It differs from the normal peptide by Arg to Trp at position 9
[5]
  IC50: 5000 nM
[6]
  fold affinity against the normal peptide: 2 fold
[7]
  percent inhibition of PIN-nNOS binding: 71%

B2: normal (non-mutant) nNOS peptide Lys Asp Thr Gly Ile Gln Val Asp Arg Asp (nNOS amino acids 229-238) (peptide)
peptide: KDTGIQVDRD
notes: Made by Fmoc solid phase synthesis; also called normal peptide; normal nNOS peptide
[5]
  IC50: 300000 nM
[7]
  percent inhibition of PIN-nNOS binding: 14%

B3: mutant nNOS peptide represented by sequence SEQ ID NO: 4 (Ile-Asp-Val-Gly-Ile-Gln-Val-Asp-Trp-Asp) (peptide)
peptide: IDVGIQVDWD
notes: Synthetic 10-mer
[8]
  IC50: 400 nM
[5]
  IC50: 500 nM
[7]
  percent inhibition of PIN-nNOS binding: 78%
